Source: US12564641B2 (EISAI R&D MANAGEMENT CO., LTD., priority 2019, dated 2026)
Where two headings read alike, the source gives them in different places.

Assays:
OVCAR3 cells = experiment: In vitro cytotoxicity analysis (Crystal Violet), OVCAR3; type: cell-based; conditions: Homo sapiens
Procedure: (§1) Plates were read at 570 nm. Data was analyzed using GraphPad Prism 6.
All ADCs were purified and characterized using SEC-HPLC for aggregation analysis, HIC-HPLC for DAR analysis, and cell-based assay with A431-A3 (MSLN^hi), A431 (MSLN^lo), and OVCAR3 (MSLN^hi) cell lines.

HEC-251 cells = experiment: In vitro cytotoxicity analysis (Crystal Violet), HEC-251; type: cell-based; conditions: Homo sapiens
Procedure: as §1

H226 cells = experiment: In vitro cytotoxicity analysis (Crystal Violet), H226; type: cell-based; conditions: Homo sapiens
Procedure: as §1

[1] = system: various cell lines (51 cell lines); experiment: In vitro potency (IC50, Crystal Violet) in cell lines with varying mesothelin expression; type: cell-based
Procedure: Cytotoxicitly Cells were sub-cultured and seeded at 5,000 cells/well in complete growth medium in 96-well tissue culture plates, and incubated at 37° C., 5% CO2 overnight (16 hours). Test reagents were serially diluted 1:3 in 2 mL deep-well dilution plates, starting at 200 nM (10 dilutions total). Diluted samples (100 μL) were added to the cell plates (starting concentration of test samples at 100 nM). Plates were incubated at 37° C., 5% CO2 for an additional 5 days. Medium was then discarded, and plates were washed once with 200 μL DPBS, stained with 50 μL of 0.2% Crystal Violet solution at room temperature for 15 min, and then washed extensively with tap water. Plates were air-dried, and Crystal Violet was dissolved with 200 μL of 1% SDS solution. Plates were read at 570 nm. Data was analyzed for IC50 determination using GraphPad Prism 6. Correlation analysis was performed in GraphPad Prism using a non-parametric Spearman analysis.

human NSCLC PDX LXFA-737 = system: human NSCLC PDX LXFA-737
Procedure: Animals: Female NMRI nu/nu mice (Crl:NMRI-Foxn1nu), 4 to 6 weeks of age.
(§2) Experimental procedure: Animals were monitored until the tumor implants reached the study volume criteria of 50-250 mm^3 (e.g., 80-200 mm^3) in a sufficient number of animals. […] The day of randomization was designated as day 0.
(§3) Tumors were measured and mice were weighed twice a week during the experimental period. The first day of dosing was day 1, one day after randomization (day 0).
Statistical analysis: Inhibition of Tumor Growth, Test/Control Value in % (Min. T/C): The test versus control value (T/C in %) was calculated from the ratio of the median residual tumor volume (RTV) values of test versus control groups on day X multiplied by 100. Tumor volume doubling and quadrupling time (Td, Tq) for test and control groups was defined as the time interval (in days) required for a group to reach a median RTV of 200% or 400%.

human NSCLC PDX LXFA-586 = experiment: Human NSCLC PDX model LXFA-586
From the text: (§4) Animals: Female NMRI nu/nu mice, 4 to 6 weeks of age.
Xenotransplantation: LXFA-586 established growing tumor (T2N1M0) from a primary non-small cell lung adenocarcinoma human patient.
as §2, with “mmi)” for “mm^3)”, “The process of the assignment to groups (enrollment, stratified randomization) may also be referred to as randomization. The” for “The”, “0 of the experiment.” for “0.”
as §3

human NSCLC PDX LXFL-529 = experiment: Human NSCLC PDX model LXFL-529
From the text: as §4
Xenotransplantation: LXFL-529 established growing tumor (T3N1M0) from a primary non-small cell lung adenocarcinoma human patient.
as §2, with “The process of the assignment to groups (enrollment, stratified randomization) may also be referred to as randomization. The” for “The”, “0 of the experiment.” for “0.”
as §3

[2] = system: human mesothelioma PDX Meso7212; experiment: Human mesothelioma PDX model Meso7212 (Example 3)
Procedure: NMRI nu/nu female mice (Janvier Labs, 5-6 weeks) were acclimated for at least 4 days upon arrival prior to inoculation. Animals was housed 3-5 mice per ventilated cage with sterilized food pellets and water bottle available ad lib. Animals were ear marked and weighed prior to study initiation.
Donor tumor tissue was cut into 2×2 mm fragments and placed in a sterile Petri dish covered with 0.9% saline. In parallel, the receptor animals were subcutaneously treated with the analgesic Metacam® (2 mg/kg) and then anaesthetized by a single intravenous injection (0.15 mL/mouse) with Etomidat-Lipuro® (12 mg/kg). A superficial vertical incision in the skin of 5-8 mm on the left flank was performed. The tip of a surgical scissor was inserted into the incision, directly over the flank, and was used to form a pocket in the subcutaneous space. One tumor fragment per mouse was implanted into the pocket using surgical tweezers. The incision was closed with a metal clip and the animals were placed back into a clean cage.
During tumor propagation, tumor diameters were measured using a digital caliper (Mitutoyo). Animals were randomly assigned into experimental groups according to their tumor volume (inclusion criteria for tumor volume, 0.1-0.3 cm^3). Tumor volumes and body weights were recorded twice weekly.
The administration volume was 10 mL/kg for intravenous injections throughout all experimental groups.
Descriptive statistics were performed on the data for tumor volume and body weight. Tumor volumes of animals from each treatment group were compared with the control group by using a repeated-measures two-way ANOVA, followed by a Bonferroni post-test. Additionally, the comparison of tumor growth of animals within each group was also performed with the same statistical analysis.

MSLN-positive cell lines = experiment: In vitro cytotoxicity (IC50, Crystal Violet) on MSLN-positive cell lines (Example 11)
Procedure: Cytotoxicity: Cells were sub-cultured and seeded at 5,000 cells/well in complete growth medium in 96-well tissue culture plates, and incubated at 37° C., 5% CO2 overnight (16 hours). Test reagents were serially diluted 1:3 in 2 mL deep-well dilution plates, starting at 200 nM (10 dilutions total). Diluted samples (100 μL) were added to the cell plates (starting concentration of test samples at 100 nM). Plates were incubated at 37° C. 5% CO2 for an additional 5 days. Medium was then discarded, and plates were washed once with 200 μL DPBS, stained with 50 μL of 0.2% Crystal Violet solution at room temperature for 15 min, and then washed extensively with tap water. Plates were air-dried, and Crystal Violet was dissolved with 200 μL of 1% SDS solution. Plates were read at 570 nm. Data was analyzed for IC50 determination using GraphPad Prism 6.

`C=C1C[C@@H]2CC[C@@]34C[C@H]5O[C@H]6[C@@H](O3)[C@H]3O[C@H](CC[C@@H]3O[C@H]6[C@H]5O4)CC(=O)C[C@@H]3[C@@H](OC)[C@@H](C[C@H](O)CN)O[C@H]3C[C@H]3O[C@@H](CC[C@@H]1O2)C[C@@H](C)C3=C` [Eribulin, eribulin, reference compound] showed an EC50 (OVCAR3 cells; OVCAR-3, read-out: Cell based Cytotoxicity assay, EC50 (nM) OVCAR3-6 hr, treated with ADC for 6 hours then washed off) of 2.81 nM, an EC50 (OVCAR3 cells; OVCAR-3, read-out: Cell based Cytotoxicity assay, EC50 (nM) OVCAR3-72 hr, treated for 72 hours) of 0.25 nM and an EC50 (HEC-251 cells; HEC-251, 120 h, Table 18, 5 days, read-out: Cell-Based Cytotoxicity Assay, EC50 (nM) HEC-251) of 0.2 nM. The EC50 (HEC-251 cells; HEC-251, Table 19, payloads, read-out: Cell-Based Cytotoxicity Assay EC50 (nM) HEC-251) was 0.2 nM, the EC50 (H226 cells; NCI-H226, 120 h, Table 18, 5 days, read-out: Cell-Based Cytotoxicity Assay, EC50 (nM) H226) was 5.3 nM and the EC50 (H226 cells; NCI-H226, Table 19, payloads, read-out: Cell-Based Cytotoxicity Assay EC50 (nM) H226) was 5.3 nM. For the same compound, the IC50 ([1]; A431-K5 cells (MSLN MFI 1430.3)) was 1.5 nM, the IC50 ([1]; COV362, COV362 cells (MSLN MFI 113.5)) was 2.78 nM and the IC50 ([1]; HAC-2 cells (MSLN MFI 172.3)) was 26.6 nM. It also gave an IC50 ([1]; HEC-251, HEC-251 cells (MSLN MFI 53.3)) of 0.5 nM, an IC50 ([1]; HK-1, HK1 cells (MSLN MFI 39.2)) of 0.89 nM and an IC50 ([1]; HNE1, HNE-1 cells (MSLN MFI 110.8)) of 0.87 nM. It also gave an IC50 ([1]; HNE-1-T1 cells (MSLN MFI 79.3)) of 1.03 nM, an IC50 ([1]; Homo sapiens, A549, A549 cells (MSLN MFI 14.2)) of 2.72 nM and an IC50 ([1]; Homo sapiens, A-431, A431 cells (MSLN MFI 5.6)) of 0.55 nM. It also gave an IC50 ([1]; Homo sapiens, ASPC1, AsPC1 cells (MSLN MFI 33.47)) of 1.62 nM, an IC50 ([1]; Homo sapiens, BXPC-3, BxPC3 cells (MSLN MFI 15.59)) of 0.66 nM and an IC50 ([1]; Homo sapiens, CNE-2, CNE2 cells (MSLN MFI 147.7)) of 0.49 nM. For the same compound, the IC50 ([1]; Homo sapiens, Caov-3, CaOV-3 cells (MSLN MFI 137.6)) was 0.44 nM, the IC50 ([1]; Homo sapiens, Capan-2, Capan-2 cells (MSLN MFI 36)) was 1.21 nM and the IC50 ([1]; Homo sapiens, EGI-1, EGI-1 cells (MSLN MFI 14.8)) was 1.48 nM. It also gave an IC50 ([1]; Homo sapiens, HCC1806, HCC1806 cells (MSLN MFI 189.3)) of 0.37 nM, an IC50 ([1]; Homo sapiens, HEC-1-A, HEC-1-A cells (MSLN MFI 16.5)) of 0.68 nM and an IC50 ([1]; Homo sapiens, HEC-1B, HEC-1-B cells (MSLN MFI 16.9)) of 0.54 nM. For the same compound, the IC50 ([1]; Homo sapiens, HONE1, HONE1 cells (MSLN MFI 108.6)) was 0.89 nM, the IC50 ([1]; Homo sapiens, JIMT-1, JIMT-1 cells (MSLN MFI 36.4)) was 0.39 nM and the IC50 ([1]; Homo sapiens, Lu-65, Lu65 cells (MSLN MFI 13.13)) was 0.56 nM. The IC50 ([1]; Homo sapiens, MFE-280, MFE-280 cells (MSLN MFI 45.1)) was 3.24 nM, the IC50 ([1]; Homo sapiens, MKN-1, MKN1 cells (MSLN MFI 22.06)) was 0.96 nM and the IC50 ([1]; Homo sapiens, MKN-7, MKN7 cells (MSLN MFI 18.48)) was 0.58 nM. For the same compound, the IC50 ([1]; Homo sapiens, MKN-45, MKN45 cells (MSLN MFI 57.94)) was 3.65 nM, the IC50 ([1]; Homo sapiens, MKN-74, MKN74 cells (MSLN MFI 7.73)) was 0.78 nM and the IC50 ([1]; Homo sapiens, NCI-H23, NCI-H23 cells (MSLN MFI 4.42)) was 0.6 nM. It also gave an IC50 ([1]; Homo sapiens, NCI-H226, H226 cells (MSLN MFI 725.3)) of 0.66 nM, an IC50 ([1]; Homo sapiens, NCI-H292, NCI-H292 cells (MSLN MFI 108.6)) of 0.58 nM and an IC50 ([1]; Homo sapiens, NCI-H460, NCI-H460 cells (MSLN MFI 8.56)) of 35.3 nM. The IC50 ([1]; Homo sapiens, NCI-H1355, NCI-H1355 cells (MSLN MFI 11.5)) was 0.67 nM, the IC50 ([1]; Homo sapiens, NCI-H1650, NCI-H1650/MSLN cells (MSLN MFI 1865.5)) was 0.84 nM and the IC50 ([1]; Homo sapiens, NCI-H1650, NCI-H1650 cells (MSLN MFI 31.5)) was 0.61 nM. For the same compound, the IC50 ([1]; Homo sapiens, NCI-H2126, NCI-H2126 cells (MSLN MFI 73.6)) was 0.53 nM, the IC50 ([1]; Homo sapiens, NCI-N87, NCI-N87 cells (MSLN MFI 125.8)) was 0.11 nM and the IC50 ([1]; Homo sapiens, OVCAR-3, OVCAR3 A1 cells (MSLN MFI 220)) was 0.15 nM. It also gave an IC50 ([1]; Homo sapiens, PC-9, PC9 cells (MSLN MFI 11.24)) of 0.56 nM, an IC50 ([1]; Homo sapiens, SUNE1, SUNE1 cells (MSLN MFI 212.4)) of 0.56 nM and an IC50 ([1]; Homo sapiens, T47D, T-47D cells (MSLN MFI 4.4)) of 0.68 nM. For the same compound, the IC50 ([1]; Kuramochi cells (MSLN MFI 211.2)) was 0.89 nM, the IC50 ([1]; MOR/CPR cells (MSLN MFI 120.79)) was 3.69 nM and the IC50 ([1]; NCI-H322, NCI-H322 cells (MSLN MFI 83.9)) was 0.46 nM. The IC50 ([1]; NCI-H1355-Sorted cells (MSLN MFI 32.7)) was 0.7 nM, the IC50 ([1]; NCI-H1568, NCI-H1568/MSLN cells (MSLN MFI 4474)) was 0.44 nM and the IC50 ([1]; NCI-H2110, NCI-H2110 cells (MSLN MFI 112.2)) was 0.32 nM. For the same compound, the IC50 ([1]; SNU-216, SNU216 cells (MSLN MFI 94.91)) was 1.78 nM, the IC50 ([1]; SNU-245 cells (MSLN MFI 23.9)) was 78.2 nM and the IC50 ([1]; SNU-478 cells (MSLN MFI 53.8)) was 1.58 nM. For the same compound, the IC50 ([1]; SNU-1196 cells (MSLN MFI 40.2)) was 1.14 nM, the IC50 ([1]; TFK1 cells (MSLN MFI 132.81)) was 1.27 nM and the “minimum T/C” value (human NSCLC PDX LXFA-737; eribulin single dose of 0.2 mg/kg, on day 44) was 51.1%. For the same compound, the “Tq (tumor volume quadrupling time)” value (human NSCLC PDX LXFA-737; eribulin single dose of 3.2 mg/kg i.v.) was 80.1%, the “minimum T/C” value (human NSCLC PDX LXFA-737; eribulin single dose of 3.2 mg/kg i.v., on day 27) was 4.2% and the tolerability / bodyweight (human NSCLC PDX LXFA-737; mouse, in vivo, iv, 3.2 mg/kg) was “slight and transient bodyweight loss”. For the same compound, the “minimum T/C” value (human NSCLC PDX LXFA-586; eribulin single dose of 3.2 mg/kg i.v., on day 21) was 14.8%, the tolerability / bodyweight (human NSCLC PDX LXFA-586; mouse, in vivo, iv, 3.2 mg/kg) was “slight and transient bodyweight loss” and the anti-tumor efficacy (human NSCLC PDX LXFL-529; eribulin single dose of 3.2 mg/kg (mouse MTD) i.v.) was “showed anti-tumor efficacy”. For the same compound, the tolerability / bodyweight (human NSCLC PDX LXFL-529; mouse, in vivo, iv, 3.2 mg/kg) was “slight and transient bodyweight loss”, the anti-tumor effect ([2]; Meso7212 (MV15369), eribulin alone 0.2 mg/kg (equivalent molar amount)) was “limited anti-tumor effects” and the body weight change ([2]; Meso7212 (MV16071), eribulin 0.3 mg/kg) was “No body weight loss”. For the same compound, the anti-tumor effect ([2]; Meso7212 (MV16071), eribulin alone 0.3 mg/kg (equivalent molar amount)) was “limited or no anti-tumor effects”, the IC50 (MSLN-positive cell lines; Homo sapiens, NCI-H292, read-out: In vitro cell based potency, IC50) was 0.11 nM and the “% Max Killing” value (MSLN-positive cell lines; NCI-H292 cells (MSLN MFI 108.6)) was 85.37%. For the same compound, the IC50 (MSLN-positive cell lines; NCI-H1568, read-out: In vitro cell based potency, IC50) was 0.14 nM, the “% Max Killing” value (MSLN-positive cell lines; NCI-H1568/MSLN cells (MSLN MFI 4474.00)) was 74.39% and the “% Max Killing” value (MSLN-positive cell lines; OVCAR3-A1 cells (MSLN MFI 220.0)) was 99.31%. It also gave an IC50 (MSLN-positive cell lines; read-out: In vitro cell based potency, IC50) of 0.02 nM.
